Earlier results in patent US20230181675A1, “NOVEL FORMUATIONS” (ARECOR LIMITED, priority 2020, published 2023).

Details: at 25° C.

Row | logK metal binding stability constant with respect to zinc ion binding | Compound
1 | 4.93 | O=C(O)CC(O)(CC(=O)O)C(=O)O [Citrate]
2 | 12.6 | O=C(O)CN(CCOCCOCCN(CC(=O)O)CC(=O)O)CC(=O)O [EGTA, ethyleneglycoltetraacetate]

Row | Compound | logK metal binding stability constant with respect to zinc ion binding
3 | O=C(O)CN(CCN(CC(=O)O)CC(=O)O)CC(=O)O [EDTA, ethylenediaminetetraacetate] | 14.5
